Results reported in patent publication US20130089570A1, “ORAL VACCINE CO[…] ANTIGEN AND A TOLL-LIKE RECEPTOR AGONIST” (Glaxo Smith Kline Biologicals S.A., priority 2010, published 2013).
Read-outs that look alike come from different tables or passages of the source. Marks after values point to notes of the source that are not given here.

System: A/Solomon Island virus (A/SI/3/2006)
Type: in vivo, BALB/c mice
Settings: for IgA concentration in mucosal samples GeoMean, BAL / IgA concentration in mucosal samples GeoMean, Feces / IgA concentration in mucosal samples GeoMean, Nasal Wash / IgA concentration in mucosal samples GeoMean, Saliva / IgA concentration in mucosal samples GeoMean, Vaginal Wash: days 0 and 14, two weeks after second immunization
[1] = Table 2 study, A/SI/3/2006 7.5 μg, adjuvant 1 μg
[2] = Table 1 study, dose of Ag 14 μg

| Compound | IgA concentration in mucosal samples GeoMean, BAL [1] | IgA concentration in mucosal samples GeoMean, Feces [1] | IgA concentration in mucosal samples GeoMean, Nasal Wash [1] | IgA concentration in mucosal samples GeoMean, Saliva [1] | IgA concentration in mucosal samples GeoMean, Vaginal Wash [1] | IgA BAL levels compared to IM immunization (Table 2 study, Kruskal Wallis and Dunn's multiple comparison test) | IgA response in vaginal wash by adjuvantation (Table 2 study, vaginal wash) | IgA concentration in mucosal samples GeoMean, BAL (Table 1 study, dose of Ag 7 μg) | IgA concentration in mucosal samples GeoMean, Feces (Table 1 study, dose of Ag 7 μg) | IgA concentration in mucosal samples GeoMean, Nasal Wash (Table 1 study, dose of Ag 7 μg) | IgA concentration in mucosal samples GeoMean, Saliva (Table 1 study, dose of Ag 7 μg) | IgA concentration in mucosal samples GeoMean, Vaginal Wash (Table 1 study, dose of Ag 7 μg) | IgA concentration in mucosal samples GeoMean, BAL [2] | IgA concentration in mucosal samples GeoMean, Feces [2] | IgA concentration in mucosal samples GeoMean, Nasal Wash [2] | IgA concentration in mucosal samples GeoMean, Saliva [2] | IgA concentration in mucosal samples GeoMean, Vaginal Wash [2] |
| --- | --- | --- | --- | --- | --- | --- | --- | --- | --- | --- | --- | --- | --- | --- | --- | --- | --- |
| Flagellin | 4.04 ng/mL | 14.56 ng/mL | 4.00 ng/mL | 2.69 ng/mL | 9.93** ng/mL | significantly higher | highly increased the IgA response | – | – | – | – | – | – | – | – | – | – |
| CCCCCCCCCCC[C@H](CC(=O)N[C@H]1[C@H](OC[C@H](NC(=O)C[C@@H](CCCCCCCCCCC)OC(=O)CCCCCCCCC)C(=O)O)O[C@H](CO)[C@@H](OP(=O)(O)O)[C@@H]1OC(=O)C[C@@H](CCCCCCCCCCC)OC(=O)CCCCCCCCC)OC(=O)CCCCCCCCC [CRX527] | 3.47 ng/mL | 8.68 ng/mL | 3.50 ng/mL | 3.22 ng/mL | 7.05 ng/mL | – | – | 7.43*** ng/mL | 48.40*** ng/mL | 11.88* ng/mL | 7.53 ng/mL | 81.01*** ng/mL | 3.67 ng/mL | 75.71*** ng/mL | 8.22 ng/mL | 5.13 ng/mL | 120.80*** ng/mL |
